According to the supplement of paper PMC10307832:

How the values were obtained:
Assay in all cases: relative viability (nuclei count vs DMSO), 5 days (fraction); higher = more cells survive
[1] = compound: O=C(CCCCCCNC(=O)c1cnc(N(c2ccccc2)c2ccccc2)nc1)NO [Ricolinostat] + Nc1ncn([C@H]2C[C@H](O)[C@@H](CO)O2)c(=O)n1 [Decitabine] (partner 2 µM)
Procedure, shortened: (§1)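 Lung cancer cell lines, seeded in 1536-well plates, were treated the following day by pin tool with a single drug or with five library-drug doses (not always all listed) in √10 steps on top of a fixed anchor-drug dose. Cells were fixed and nuclei stained in one step after 5 days, and nuclei were counted. Relative viability is the nuclei count for treated wells divided by that for vehicle wells, reported as medians of duplicate plates.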

TGX 221 + Phenformin = compound: CC1=CN2C(=O)C=C(N=C2C(=C1)C(C)NC3=CC=CC=C3)N4CCOCC4 [TGX 221] + N=C(N)NC(=N)NCCc1ccccc1 [Phenformin] (partner 250 µM)
Procedure, shortened: as §1

[2] = compound: C1=CC=C(C(=C1)C2=CC=C(C=C2)C3=CSC4=C3C(=C(C(=O)N4)C#N)O)O + Nc1ncn([C@H]2C[C@H](O)[C@@H](CO)O2)c(=O)n1 [Decitabine] (partner 2 µM)
Procedure, shortened: as §1

[3] = compound: O=C(CCCCCCNC(=O)c1cnc(N(c2ccccc2)c2ccccc2)nc1)NO [Ricolinostat] + CC(C)C[C@H](NC(=O)[C@H](Cc1ccccc1)NC(=O)c1cnccn1)B(O)O [Bortezomib] (partner 0.002 µM)
Procedure, shortened: as §1

TGX 221 + Pemetrexed = compound: CC1=CN2C(=O)C=C(N=C2C(=C1)C(C)NC3=CC=CC=C3)N4CCOCC4 [TGX 221] + Nc1nc2[nH]cc(CCc3ccc(C(=O)N[C@@H](CCC(=O)O)C(=O)O)cc3)c2c(=O)[nH]1 [Pemetrexed] (partner 0.2 µM)
Procedure, shortened: as §1

## NCI-H1792
[1]; first compound 0.253 µM
  relative viability: 0.484
[1]; first compound 0.8 µM
  relative viability: 0.492
[1]; first compound 2.53 µM
  relative viability: 0.366
TGX 221 + Phenformin; first compound 0.8 µM
  relative viability: 0.249
TGX 221 + Phenformin; first compound 2.53 µM
  relative viability: 0.319
TGX 221 + Phenformin; first compound 8 µM
  relative viability: 0.283
[2]; first compound 0.253 µM
  relative viability: 0.715
[2]; first compound 0.8 µM
  relative viability: 0.482
[2]; first compound 2.53 µM
  relative viability: 0.617
[2]; first compound 8 µM
  relative viability: 0.438
[3]; first compound 0.08 µM
  relative viability: 0.899
[3]; first compound 0.253 µM
  relative viability: 0.926
[3]; first compound 0.8 µM
  relative viability: 0.944
[3]; first compound 2.53 µM
  relative viability: 0.973
TGX 221 + Pemetrexed; first compound 0.08 µM
  relative viability: 0.795
TGX 221 + Pemetrexed; first compound 0.253 µM
  relative viability: 0.695
TGX 221 + Pemetrexed; first compound 0.8 µM
  relative viability: 0.557
TGX 221 + Pemetrexed; first compound 2.53 µM
  relative viability: 0.549
TGX 221 + Pemetrexed; first compound 8 µM
  relative viability: 0.802
